The results in this text go back to patent publication US20030176479A1, “Use of selective EP4 receptor agonists for the treatment of liver failure, loss of patency of the ductus arteriosus, glaucoma or ocular hypertension” (priority 2002, published 2003).

Experiment [1] concerns the target T1, human EP3 receptor (Homo sapiens, UniProt P43115).
T1 construct: expressed in transfected cells
T1 sequence (P43115 1-390): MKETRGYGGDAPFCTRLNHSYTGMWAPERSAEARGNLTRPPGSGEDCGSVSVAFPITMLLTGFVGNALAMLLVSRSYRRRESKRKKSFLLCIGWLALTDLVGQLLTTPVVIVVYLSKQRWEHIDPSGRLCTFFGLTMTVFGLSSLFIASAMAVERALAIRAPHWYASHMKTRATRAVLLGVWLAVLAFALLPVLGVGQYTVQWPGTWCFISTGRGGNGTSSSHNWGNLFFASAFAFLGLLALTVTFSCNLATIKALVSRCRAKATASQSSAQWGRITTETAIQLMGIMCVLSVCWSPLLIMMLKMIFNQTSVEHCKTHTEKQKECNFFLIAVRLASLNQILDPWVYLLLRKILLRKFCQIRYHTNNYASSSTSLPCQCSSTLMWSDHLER
Kind of experiment: Human EP3 receptor binding assay (3H-PGE2 displacement, 293S cell membranes). The settings on record: displacement of 3H-prostaglandin E2, 293S membranes, 1 hour at 25° C. An excerpt: (§1) The compounds of Formula I or II, which are useful in the methods of the present invention, bind to the prostaglandin E2 type 4 receptor (EP4 receptor). The full-length coding sequence for the human EP1 receptor is made in accordance with the procedure in Funk et al., Journal of Biological Chemistry, 1993, 268, 26767-26772. The full-length rat EP2 receptor is made in accordance with the procedure in Nemoto et al., Prostaglandins and other Lipid Mediators, 1997, 54, 713-725. The full-length coding sequence for the human EP3 receptor is made in accordance with the procedure in Regan et al., British Journal of Pharmacology, 1994, 112, 377-385. The full-length coding sequence for the rat EP4 receptor is made in accordance with the procedure in Sando et al., Biochem. Biophys. Res. Comm. 1994, 200,1329-1333. These full-length receptors are used to prepare 293S cells expressing the human EP1, rat EP2, human EP3 or rat EP4 receptors.
(§2) Human EP1, Rat EP2, Human EP3, Rat EP4 Receptor Binding Assay
(§3) The full-length receptors described above are used to prepare 293S cells expressing the EP1, EP2, EP3, and EP4 receptors.
(§4) 293S cells expressing either the human EP1, rat EP2, human EP3 or rat EP4 prostaglandin E2 receptors are generated according to methods known to those skilled in the art. Typically, PCR (polymerase chain reaction) primers corresponding to the 5′ and 3′ ends of the published full length receptor are made according to the well known methods disclosed above and are used in an RT-PCR (reverse transcriptase-polymerase chain reaction) reaction using the total RNA from human kidney (for EP1), rat kidney (for EP2), human lung (for EP3), or rat kidney (EP4) as a source. PCR products are cloned by the TA overhang method into pCR2.1 (Invitrogen Corporation, Carlsbad, Calif.) and identity of the cloned receptor is confirmed by DNA sequencing. For expression of the rat EP2 receptor, the confirmed cDNA is subcloned into the mammalian expression vector PURpCl, a vector generated by subcloning the selectable marker for puromycin resistance into the mammalian expression vector pCl (Promega, Madison, Wis.)
(§5) 293S cells are transfected with either the cloned human EP1 or EP3 receptor in pcDNA3 by electroporation. Stable cell lines expressing either the human EP1 or EP3 receptor are established following selection of transfected cells with G418. 293S cells are transfected with the cloned rat EP2 receptor in PURpCi by lipid mediated transfection. Stable cell lines expressing the rat EP2 receptor are established following selection of transfected cells with puromycin. 293S cells are transfected with the cloned rat EP4 receptor in pcDNA3 by lipid mediated transfection. Stable cell lines expressing the rat EP4 receptor are established following selection of transfected cells with Geneticin® (Invitrogen, Carlsbad, Calif.).
(§6) Clonal cell lines expressing the maximal number of receptors are chosen following a whole cell ^3H-PGE2 binding assay using unlabeled PGE2 as a competitor.
(§7) Membrane Preparation: All operations are performed at 4° C. Transfected cells expressing either prostaglandin E2 type 1, type 2, type 3, or type 4 (EP1, EP2, EP3, or EP4, respectively) receptors are harvested and suspended to 2 million cells per ml in Buffer A [50 mM Tris-HCl (pH 7.4), 10 mM MgCI2, 1 mM EDTA, 1 mM Pefabloc peptide, (Boehringer Mannheim Corp., Indianapolis, Ind.), 10 uM Phosporamidon peptide, (Sigma, St. Louis, Mo.), 1 uM pepstatin A peptide, (Sigma, St. Louis, Mo.), 10 uM elastatinal peptide, (Sigma, St. Louis, Mo.), 100 uM antipain peptide, (Sigma, St. Louis, Mo.)]. The cells are lysed by sonification with a Branson Sonifier (Branson Ultrasonics Corporation, Danbury, Conn.) in 2 fifteen-second bursts. Unlysed cells and debris are removed by centrifugation at 100 ×g for 10 min. Membranes are then harvested by centrifugation at 45,000×g for 30 minutes. […]
A general note: Loss of bound radioactivity is the signal in a displacement assay; it reports binding, not function.

Experiment [2] deals with T2, rat EP4 receptor (Rattus norvegicus, UniProt P43114).
T2 construct: expressed in transfected cells
Kind of experiment: Rat EP4 receptor binding assay (3H-PGE2 displacement, 293S cell membranes). The settings on record: displacement of 3H-prostaglandin E2, 293S membranes, 1 hour at 25° C.
Source text: as §1, §2, §3, §4, §5, §6, §7

The target in experiment [3] is T3, human EP1 receptor (Homo sapiens, UniProt P34995).
T3 construct: expressed in transfected cells
T3 sequence (P34995 1-402): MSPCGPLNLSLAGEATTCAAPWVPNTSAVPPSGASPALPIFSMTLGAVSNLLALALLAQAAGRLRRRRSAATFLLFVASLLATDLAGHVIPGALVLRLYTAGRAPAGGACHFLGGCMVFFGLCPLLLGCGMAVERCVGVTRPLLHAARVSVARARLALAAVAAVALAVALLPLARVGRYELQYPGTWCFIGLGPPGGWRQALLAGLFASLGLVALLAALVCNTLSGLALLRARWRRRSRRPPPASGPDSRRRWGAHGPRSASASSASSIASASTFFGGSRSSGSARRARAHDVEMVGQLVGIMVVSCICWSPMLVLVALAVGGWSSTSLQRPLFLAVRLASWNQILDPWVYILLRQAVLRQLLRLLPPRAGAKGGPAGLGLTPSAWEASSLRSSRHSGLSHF
Kind of experiment: Human EP1 receptor binding assay (3H-PGE2 displacement, 293S cell membranes). The conditions noted are these: displacement of 3H-prostaglandin E2, 293S membranes, 1 hour at 25° C.
Source text: as §1, §2, §3, §4, §5, §6, §7

The target of experiment [4] is T4, rat EP2 receptor (Rattus norvegicus, UniProt Q62928).
T4 construct: The full-length rat EP2 receptor is made in accordance with the procedure in Nemoto et al; expressed in transfected cells
Kind of experiment: Rat EP2 receptor binding assay (3H-PGE2 displacement, 293S cell membranes). The settings on record: displacement of 3H-prostaglandin E2, 293S membranes, 1 hour at 25° C.
Source text: as §1, §2, §3, §4, §5, §6, §7

For experiment [5], the target named is T2, rat EP4 receptor. Kind of experiment: Cyclic AMP elevation in 293S cell lines stably overexpressing recombinant rat EP4 receptors. The class given is cell-based. The settings on record: 293S cells expressing rat EP4, 1 mM IBMX, 12 minutes at 37° C.; read-out: EC50 in the cAMP (rat EP4) elevation assay. The source says: Determination of Cyclic AMP Elevation in 293S Cell Lines Stably Overexpressing Recombinant Rat EP4 Receptors Assay
cDNA representing the complete open reading frame of the rat EP4 receptor is generated by reverse transcriptase polymerase chain reaction using oligonucleotide primers based on published sequences. The full length coding sequence for the rat EP4 receptor is made in accordance with the procedure in Sando et al., Biochem. Biophys. Res. Comm. 1994, 200, 1329-1333, and RNA from rat kidney (EP4) as templates. 293S cells are transfected with the cloned rat EP4 receptor in pcDNA3 by lipid mediated transfection. Stable cell lines expressing the rat EP4 receptor are established following selection of transfected cells with Geneticin® (Invitrogen Corporation, Carlsbad, Calif.).
(§8) Clonal cell lines expressing the maximal number of receptors are chosen following a whole cell ^3H-PGE2 binding assay using unlabeled PGE2 as a competitor. […] Constitutive expression of the receptor in parental 293-S cells is negligible. A stable cell line containing the rat EP4 receptor is grown in Dulbecco's Mosified Eagle Medium/F12 (DMEM/F12) containing 10% fetal bovine serum and G418 (500 μg/ml) to 80% confluency.
cAMP responses in the 293-S/EP4 lines are determined by detaching cells from culture flasks in 1 ml of calcium (Ca++) and magnesium (Mg++) deficient phosphate buffered saline (PBS) via vigorous pounding and then rinsing the cells with calcium (Ca++) and magnesium (Mg++) deficient phosphate buffered saline (PBS). The cells are resuspended in MEM (Minimum Essential Medium), 1% BSA (bovine serum albumin), 50 mM HEPES (N-[2-Hydroxyethyl]piperazine-N′-[2-ethanesulfonic acid]) at 37° C. The cell suspension is counted on a hemacytometer and diluted by adding MEM (Minimum Essential Medium) to a final concentration of 1×10^6 cells/ml, and adding 3-isobutyl-1-methylxanthine (IBMX) to a final concentration of 1 mM. 200 microliters of cell suspension is immediately aliquoted into individual tubes and incubated for 10 minutes, uncovered, at 37° C., 5% CO2, 95% relative humidity. The compound of Formula I or II to be tested in either dimethylsulfoxide (DMSO) or ethanol is then added to cells at 1:100 dilutions such that the final DMSO or ethanol concentration is 1%. Typically, the cells are treated with 6-8 different concentrations (in 1 log increments, such as those described below) of the compound of Formula I or II. Typical concentrations of the compound of Formula I or II in this assay are between 10^−5M to 10^−10M. For example, a six point compound dose response assay tests the compound of Formula I or II at concentrations of 10^−5M, 10^−6M, 10^−7M, 10^−8M, 10^−9M and 10^—10M. Immediately after adding the test compound, the tubes are covered, mixed by inverting two times, and incubated at 37° C. for 12 minutes. Samples are then lysed by incubation at 100° C. for 10 minutes and immediately cooled on ice for 5 minutes to approximately 4° C. Cellular debris is pelleted by centrifugation at 3500×g for 5 minutes at approximately 4° C., and cleared lysates are transferred to fresh tubes. cAMP concentrations are determined using a commercially available ^125I-cAMP radioimmunoassay (RIA) kit (NEK-033, Perkin-Elmer Life Sciences, Inc., Boston, Mass.). The cleared lysates are diluted 1:100 in cAMP RIA assay buffer (included in kit) and centrifuged again. 50 microliters of the resulting supernatant is transferred to a 12×75 mm glass tube and data is collected by scintillation counting using a Wallac Cobra II Gamma Counter (Perkin-Elmer Wallac, Inc., Gaithersburg, Md.). EC50 calculations are performed on a calculator using linear regression analysis on the linear portion of the dose response curves or using Data Fitter.

For experiment [6], the target named is T2, rat EP4 receptor. Kind of experiment: Whole cell 3H-PGE2 binding, Scatchard analysis of 293S/EP4 transfectants. The settings on record: cell lines selected for compound screening. Here is the method: as §8

pEC50, pIC50, pKd: −log10 of the molar value.

T2 sequence (P43114 whole entry): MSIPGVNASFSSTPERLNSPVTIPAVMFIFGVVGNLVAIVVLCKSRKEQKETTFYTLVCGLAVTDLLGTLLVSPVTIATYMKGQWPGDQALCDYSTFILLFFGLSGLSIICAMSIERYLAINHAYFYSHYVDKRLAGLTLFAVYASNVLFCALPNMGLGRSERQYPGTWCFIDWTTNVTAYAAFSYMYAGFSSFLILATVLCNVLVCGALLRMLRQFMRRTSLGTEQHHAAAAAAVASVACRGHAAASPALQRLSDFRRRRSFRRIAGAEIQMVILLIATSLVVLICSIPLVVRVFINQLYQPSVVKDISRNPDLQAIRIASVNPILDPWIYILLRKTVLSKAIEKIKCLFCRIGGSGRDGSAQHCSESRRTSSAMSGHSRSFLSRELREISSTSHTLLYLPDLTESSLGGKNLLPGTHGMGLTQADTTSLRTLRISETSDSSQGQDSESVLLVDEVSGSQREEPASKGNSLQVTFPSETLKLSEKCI
T4 sequence (Q62928 whole entry): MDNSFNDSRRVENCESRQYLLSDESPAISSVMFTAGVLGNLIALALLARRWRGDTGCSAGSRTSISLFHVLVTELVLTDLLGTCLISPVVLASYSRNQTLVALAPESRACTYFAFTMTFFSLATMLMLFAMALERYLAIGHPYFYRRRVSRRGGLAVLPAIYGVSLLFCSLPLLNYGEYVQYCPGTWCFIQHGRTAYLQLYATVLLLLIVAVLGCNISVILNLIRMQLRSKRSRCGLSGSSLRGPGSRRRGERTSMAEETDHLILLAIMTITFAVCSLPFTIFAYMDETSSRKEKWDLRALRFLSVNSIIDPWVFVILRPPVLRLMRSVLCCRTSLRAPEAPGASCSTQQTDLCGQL

Regarding `O=C1CCC(CCC(O)Cc2ccc(F)cc2)N1CCCCCCc1nn[nH]n1` (stereo not drawn) [Example 5, 5-[4-(4-Fluoro-phenyl)-3-hydroxy-butyl]-1-[6-(2H-tetrazol-5-yl)-hexyl]-pyrrolidin-2-one], the pIC50 was less than 5.49 in experiment [1], 6.29 in experiment [2], less than 5.49 in experiment [3] and less than 5.49 in experiment [4].
Turning to `O=C1CCC(CCC(O)Cc2cccc(F)c2)N1CCCCCCc1nn[nH]n1` (stereo not drawn) [Example 7, 5-[4-(3-Fluoro-phenyl)-3-hydroxy-butyl]-1-[6-(2H-tetrazol-5-yl)-hexyl]-pyrrolidin-2-one], the pEC50 in experiment [5] was 6.70. Also, the figures for the pIC50 in experiment [2] and in experiment [4] were 7.02 and less than 5.49, respectively.
For `O=C1CC[C@H](CC[C@@H](O)Cc2cccc(Cl)c2)N1CCCCCCc1nn[nH]n1` [Example 8, 5S-[4-(3-Chloro-phenyl)-3R-hydroxy-butyl]-1-[6-(2H-tetrazol-5-yl)-hexyl]-pyrrolidin-2-one], the pEC50 in experiment [5] is 7.61. The negative logarithm of the IC50 (pIC50) in experiment [2] was 7.55; in experiment [4] it was less than 5.49.
`O=C(O)CCCCCCN1C(=O)CC[C@@H]1CCC(O)Cc1cccc(Oc2ccccc2)c1` (stereo partly drawn) [Example 10, 7-{2S-[3-Hydroxy-4-(3-phenoxy-phenyl)-butyl]-5-oxo-pyrrolidin-1-yl}-heptanoic acid] gave a negative logarithm of the IC50 (pIC50) in experiment [2] of 6.27.
As for `CCCCC[C@H](O)/C=C/[C@H]1[C@H](O)CC(=O)[C@@H]1C/C=C\CCCC(=O)O` [PGE2, Prostaglandin E2], the pKd in experiment [6] was 8.54.

As a reminder, the pIC50 is the IC50 on a negative log10 scale, so that one unit is a factor of ten. For orientation: pEC50 means −log10 of the EC50, conventionally taken in molar units. Usually pKd stands for the negative decadic logarithm of the Kd, by convention in mol/L. Lower therefore signals a high Kd.
